From patent US12703718B2, “Compositions and compounds for co-delivery of uridine and ketoleucine” (PHARMA CINQ, LLC, priority 2021, dated 2026)
Like-named read-outs stand apart in the source and are kept apart here.

Tests used:
[1] = test system: Female CD-1 mice treated with 3-nitropropionic acid (3-NP); test: Protective effects in 3-NP mouse model of mitochondrial dysfunction (survival, weight loss); type: in vivo; settings: for Survival at d 8: 3-NP 65 mg/Kg ip daily, survivors/10 mice
Experimental: A combination of uridine triacetate and ketoleucine was assessed in a model of progressive and lethal impairment of mitochondrial oxidative phosphorylation. 3-nitropropionic acid (3-NP), an irreversible inhibitor of Complex II of the mitochondrial electron transport chain. Daily administration of 3-NP results in progressive loss of mitochondrial reserve energy capacity, until the threshold for baseline energy requirements for survival is breached, resulting in mortality from both heart failure and central nervous system dysfunction.
In this study, uridine triacetate was administered as either by gavage as an oral bolus, or by incorporation into rodent chow at a concentration of 4% w/w. Similarly, ketoleucine (in the form of its sodium salt; NaKL) was administered in different groups by gavage or by dissolving it in drinking water. Sodium chloride (NaCl) was used as a control substance in some groups to account for the sodium load from the ketoleucine salt. • Chemical(s): Hydroxypropyl methyl cellulose (HPMC), cat #H3785, Lot #SLBS5701, CAS 9004-65-3, SIGMA-Aldrich. Uridine Triacetate for gavage (UTA), item, D000156, Lot #Q000001095, Almac Sciences, Uridine Triacetate in the diet (UTA), item & Lot #, D000302, 2148-070, Project #1314A0071A, recovery of material from R-104 Lot Q000003578, Almac Sciences, Sodium Chloride (NaCl), VWR, Cat #BDH9286-500G, Lot #1976C500, CAS 7647-14-5, 4-methyl-2-oxovaleric acid sodium salt (ketoLeucine: NaKL), cat #M326425, Lot #1-AWT-36-1, CAS4502-00-5, Toronto Research Chemicals, and 3-nitropropionic acid (3NP), cat #N5636, Lot #11101616, CAS 504-88-1, SIGMA-Aldrich. • Vehicle(s): UTA, NaKL, or NaCl in suspensions was prepared in 0.75% HPMC. NaCL or NaKL in the drinking water were prepared by dissolving in water. 3-NP solutions were prepared in water. • Dosing Formulation(s): Preparation: UTA was suspended in 0.75% HPMC at 50 mg/ml. NaKL will be suspended in 0.75% HPMC at 100 mg/ml, or included in the drinking water at 15.8 mg/ml. […]

[2] = oral; cited from earlier work
[3] = oral, mice; cited from earlier work
[4] = oral, humans; cited from earlier work

CC(=O)OC[C@H]1O[C@@H](n2ccc(=O)[nH]c2=O)[C@H](OC(C)=O)[C@@H]1OC(C)=O [UTA, 2′,3′,5,-tri-O-acetyluridine]
Survival at d 8 ([1]; Group 1: 4% UTA diet, NaCl in drinking water, no gavage): 0/10
Survival at d 8 ([1]; Group 3: normal chow, regular water, UTA 1000 mg/Kg and NaCl by gavage 7 AM and 4 PM): 1/10
Protection against weight loss, comparison between groups ([1]; bolus (gavage) uridine triacetate with or without NaKL (Groups 3-5) versus 4% (w/w) uridine triacetate in chow (Groups 1 and 2)): better protection against weight loss
bioavailability [2]: approximately 50%

O=c1ccn([C@@H]2O[C@H](CO)[C@@H](O)[C@H]2O)c(=O)[nH]1 [uridine]
bioavailability [3]: approximately 7%
bioavailability [4]: approximately 7%
